Reference: BindingDB's records for doi:10.1016/j.bmcl.2005.08.107 (Bristol-Myers Squibb Pharmaceutical Research Institute, 2005)

target: Coagulation factor X (Homo sapiens, UniProt P00742); assay: Inhibitory activity against human FXa
Sequence (P00742 41-179 limits assumed): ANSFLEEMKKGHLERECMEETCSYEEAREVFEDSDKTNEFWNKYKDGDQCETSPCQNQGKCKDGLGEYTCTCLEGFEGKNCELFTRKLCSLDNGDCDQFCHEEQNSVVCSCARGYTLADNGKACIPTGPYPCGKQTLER
Sequence (P00742 235-488 limits assumed): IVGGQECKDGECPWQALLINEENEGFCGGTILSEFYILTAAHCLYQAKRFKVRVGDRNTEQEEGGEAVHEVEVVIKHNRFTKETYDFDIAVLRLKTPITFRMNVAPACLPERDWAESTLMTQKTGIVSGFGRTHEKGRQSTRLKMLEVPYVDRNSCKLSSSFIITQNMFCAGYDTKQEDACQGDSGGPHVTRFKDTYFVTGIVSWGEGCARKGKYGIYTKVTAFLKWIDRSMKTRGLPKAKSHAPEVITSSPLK

IC50 [nM] | SMILES
> 34000 | CN(C)c1ccc(NC(C[N+](=O)[O-])=N[C@H]2CCCCN(CC(=O)N3CCCC3)C2=O)cc1 [(S,Z)-3-(1-(4-(dimethylamino)phenylamino)-2-nitrovinylamino)-1-(2-oxo-2-(pyrrolidin-1-yl)ethyl)azepan-2-one]
13 | Cc1cc2cc(N=C(N[C@H]3CCCCN(CC(=O)N4CCCC4)C3=O)C(C#N)C(=O)NC(N)=O)ccc2o1 (stereo partly drawn) [(S,Z)-1-(2-cyano-3-(2-methylbenzofuran-5-ylamino)-3-(2-oxo-1-(2-oxo-2-(pyrrolidin-1-yl)ethyl)azepan-3-ylamino)acryloyl)urea]
13 | Cc1cc2cc(N=C(N[C@H]3CCCCN(CC(=O)N4CCCC4)C3=O)C(C#N)C(=O)c3ccc(Cl)cc3)ccc2o1 (stereo partly drawn) [(S,Z)-2-(4-chlorobenzoyl)-3-(2-methylbenzofuran-5-ylamino)-3-(2-oxo-1-(2-oxo-2-(pyrrolidin-1-yl)ethyl)azepan-3-ylamino)acrylonitrile]
57 | Cc1cc2cc(N=C(N[C@H]3CCCCN(CC(=O)N4CCCC4)C3=O)C(C#N)C(=O)N3CCC(C)CC3)ccc2o1 (stereo partly drawn) [(S,Z)-3-(2-methylbenzofuran-5-ylamino)-2-(4-methylpiperidine-1-carbonyl)-3-(2-oxo-1-(2-oxo-2-(pyrrolidin-1-yl)ethyl)azepan-3-ylamino)acrylonitrile]
> 34000 | Cc1ccc(NC(C[N+](=O)[O-])=N[C@H]2CCCCN(CC(=O)N3CCCC3)C2=O)cc1 [(S,Z)-3-(1-(p-toluidino)-2-nitrovinylamino)-1-(2-oxo-2-(pyrrolidin-1-yl)ethyl)azepan-2-one]
57 | Cc1cc2cc(N=C(N[C@H]3CCCCN(CC(=O)N4CCCC4)C3=O)C(C#N)C(=O)OC(C)(C)C)ccc2o1 (stereo partly drawn) [(S,Z)-tert-butyl 2-cyano-3-(2-methylbenzofuran-5-ylamino)-3-(2-oxo-1-(2-oxo-2-(pyrrolidin-1-yl)ethyl)azepan-3-ylamino)acrylate]
13 | COc1ccc(C(=O)C(C#N)C(=Nc2ccc3oc(C)cc3c2)N[C@H]2CCCCN(CC(=O)N3CCCC3)C2=O)cc1 (stereo partly drawn) [(S,Z)-2-(4-methoxybenzoyl)-3-(2-methylbenzofuran-5-ylamino)-3-(2-oxo-1-(2-oxo-2-(pyrrolidin-1-yl)ethyl)azepan-3-ylamino)acrylonitrile]
